Data reported in ChEMBL document CHEMBL4020744 (Bioorg Med Chem Lett, 2017).

Experiments:
Lassa virus = assay: Antiviral activity against Lassa virus infected in human HuH7 cells pretreated for 2 to 3 hrs followed by viral infection measured after 3 days by fluorescence assay; format: functional, cell-based; conditions: Mammarenavirus lassaense, Huh-7
Huh-7 = assay: Cytotoxicity against human HuH7 cells after 2 to 3 hrs by CellTiter-Glo assay; format: cell-based
Ebolavirus [1] = assay: Antiviral activity against Ebolavirus Makona infected in human HeLa cells preincubated for 2 hrs followed by viral infection measured after 15 to 20 hrs by Draq5 staining based assay; format: functional, cell-based, Zaire ebolavirus Makona; conditions: Orthoebolavirus
[2] = Cytotoxicity against human HeLa cells after 2 hrs by Draq staining based assay; format: cell-based
Ebolavirus [3] = assay: Antiviral activity against Sudan virus Gulu infected in human HeLa cells preincubated with cells for 2 hrs followed by viral infection measured after 48 hrs by immunostaining based assay; format: functional, cell-based, Sudan ebolavirus; conditions: Orthoebolavirus
Rift Valley fever virus = assay: Antiviral activity against Rift Valley fever virus infected in human HeLa cells preincubated for 2 to 3 hrs followed by viral infection measured after 3 days by fluorescence assay; format: functional, cell-based
Marburgvirus = assay: Antiviral activity against Marburg virus Ci67 infected in human HeLa cells preincubated for 2 hrs followed by viral infection measured after 15 to 20 hrs by Draq staining based assay; format: functional, cell-based, Lake Victoria marburgvirus - Ci67; conditions: Orthomarburgvirus

| Compound | EC50 (Lassa virus) | CC50 (Huh-7) | EC50 (Ebolavirus [1]) | CC50 at 2 h [2] | EC50 (Ebolavirus [3]) | EC50 (Rift Valley fever virus) | EC50 (Marburgvirus) |
| --- | --- | --- | --- | --- | --- | --- | --- |
| CCC(CC)COC(=O)[C@H](C)N[P@](=O)(OCCOCn1cnc(-c2cnc(N)nc2OC)c1)Oc1ccccc1 | > 50 µM | > 50 µM | 29 µM | > 100 µM | 7 µM | > 50 µM | 62 µM |
| COc1nc(N)ncc1-c1cn(COCCO)cn1 | > 50 µM | > 50 µM | > 100 µM | > 100 µM | > 100 µM | > 50 µM | > 100 µM |
| COc1nc(N)ncc1-c1cn(COCCOC(C)=O)cn1 |  |  | 44 µM | > 100 µM | 20 µM |  | 70 µM |
